Each molecule was assayed against T1, SaGPN (Sulfolobus acidocaldarius, UniProt Q4J9A7) (assay: isothermal titration calorimetry).
T1 construct: gene Saci_1281; E. coli BL21(DE3) Rosetta; Y2-A240 built, 14 C-terminal residues disordered
T1 sequence (Q4J9A7 1-254): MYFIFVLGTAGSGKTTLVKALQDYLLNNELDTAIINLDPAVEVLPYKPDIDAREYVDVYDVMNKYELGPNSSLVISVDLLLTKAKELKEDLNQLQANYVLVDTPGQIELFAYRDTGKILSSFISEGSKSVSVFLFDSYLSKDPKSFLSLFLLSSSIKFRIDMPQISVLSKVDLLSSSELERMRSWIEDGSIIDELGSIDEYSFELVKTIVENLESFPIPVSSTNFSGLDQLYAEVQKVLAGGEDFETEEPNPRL
Format: binding

Row | Kd | Structure (SMILES)
1 | 6.15 nM | Nc1nc2c(ncn2[C@@H]2O[C@H](COP(=O)(O)OP(=O)(O)O)[C@@H](O)[C@H]2O)c(=O)[nH]1 [GDP]
2 | 22 nM | Nc1nc2c(ncn2[C@@H]2O[C@H](COP(=O)(O)OP(=O)(O)NP(=O)(O)O)[C@@H](O)[C@H]2O)c(=O)[nH]1 [GppNHp]
3 | 2.2 nM | Nc1nc2c(ncn2[C@@H]2O[C@H](COP(=O)(O)OP(=O)(O)OP(=O)(O)O)[C@@H](O)[C@H]2O)c(=O)[nH]1 [GTP]

— article PMC10746158, “Archaeal GPN-loop GTPases involve a lock-switch-rock mechanism for GTP hydrolysis” (mBio, 2023)
